# Data from ChEMBL document CHEMBL2021804, “Synthesis and evaluation of piperidine urea derivatives as efficacious 11β-hydroxysteroid dehydrogenase type 1 inhibitors in diabetic ob/ob mice” (Bioorg Med Chem Lett, 2012).
# Tests used:
# [1] = target: 11-beta-hydroxysteroid dehydrogenase 1 (Mus musculus, UniProt P50172); assay: Inhibition of mouse 11beta-HSD1 expressed in HEK293 cells assessed as [3H]cortisol production after 60 mins by SPA; type: cell-based
# [2] = target: 11-beta-hydroxysteroid dehydrogenase 1 (Homo sapiens, UniProt P28845); assay: Inhibition of human 11beta-HSD1 expressed in HEK293 cells assessed as [3H]cortisol production after 60 mins by SPA; type: cell-based
# 11-beta-hydroxysteroid dehydrogenase 1 (Homo sapiens, UniProt P28845), sequence (P28845 whole entry): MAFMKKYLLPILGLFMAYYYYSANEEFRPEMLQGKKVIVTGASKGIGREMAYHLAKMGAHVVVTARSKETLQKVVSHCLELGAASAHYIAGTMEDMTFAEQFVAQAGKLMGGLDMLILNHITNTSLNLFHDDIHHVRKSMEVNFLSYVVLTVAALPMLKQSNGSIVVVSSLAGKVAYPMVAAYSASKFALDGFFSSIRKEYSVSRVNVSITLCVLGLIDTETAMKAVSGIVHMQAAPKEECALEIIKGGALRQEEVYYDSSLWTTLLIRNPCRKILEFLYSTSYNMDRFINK
# HEK293 [3] = assay: Selectivity ratio of IC50 for human 11beta-HSD1 expressed in HEK293 cells to IC50 for mouse 11beta-HSD1 expressed in HEK293 cells; type: cell-based
# [4] = target: T1, 11-beta-hydroxysteroid dehydrogenase type 2 (Homo sapiens, UniProt P80365); assay: Inhibition of human 11beta-HSD2 expressed in HEK293 cells assessed as [3H]cortisol production after 60 mins by SPA; type: cell-based
# T1 sequence (P80365 whole entry): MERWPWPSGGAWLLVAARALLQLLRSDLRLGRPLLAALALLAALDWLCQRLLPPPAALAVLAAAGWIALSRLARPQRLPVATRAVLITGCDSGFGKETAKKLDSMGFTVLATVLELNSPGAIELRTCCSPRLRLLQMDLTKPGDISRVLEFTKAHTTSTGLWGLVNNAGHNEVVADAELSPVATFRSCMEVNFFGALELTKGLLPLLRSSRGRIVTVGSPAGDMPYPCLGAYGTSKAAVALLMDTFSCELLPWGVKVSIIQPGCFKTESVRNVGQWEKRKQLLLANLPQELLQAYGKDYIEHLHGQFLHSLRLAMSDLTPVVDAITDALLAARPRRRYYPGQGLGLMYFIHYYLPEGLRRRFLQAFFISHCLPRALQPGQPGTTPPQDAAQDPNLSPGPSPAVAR
# [5] = target: T2, 11-beta-hydroxysteroid dehydrogenase type 2 (Mus musculus, UniProt P51661); assay: Inhibition of mouse 11beta-HSD2 expressed in HEK293 cells assessed as [3H]cortisol production after 60 mins by SPA; type: cell-based
# T2 sequence (P51661 whole entry): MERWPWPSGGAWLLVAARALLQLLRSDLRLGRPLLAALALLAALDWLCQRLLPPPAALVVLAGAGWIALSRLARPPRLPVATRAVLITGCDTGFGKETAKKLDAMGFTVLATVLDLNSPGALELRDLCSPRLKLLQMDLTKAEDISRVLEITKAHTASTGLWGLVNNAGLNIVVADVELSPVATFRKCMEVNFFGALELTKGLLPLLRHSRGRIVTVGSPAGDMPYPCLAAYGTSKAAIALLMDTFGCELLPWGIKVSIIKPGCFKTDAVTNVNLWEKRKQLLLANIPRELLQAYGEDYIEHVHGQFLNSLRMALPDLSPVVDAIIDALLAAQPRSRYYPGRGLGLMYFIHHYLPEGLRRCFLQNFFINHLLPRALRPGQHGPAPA
# HEK293 [6] = assay: Selectivity ratio of IC50 for human 11beta-HSD2 expressed in HEK293 cells to IC50 for human 11beta-HSD1 expressed in HEK293 cells; type: cell-based
# [7] = Cmax in po dosed Sprague-Dawley rat; type: ADME, organism-based; parameters: route oral; details: in vivo
# Mus musculus [8] = assay: Antidiabetic activity in ob/ob mouse type 2 diabetes model assessed as reduction in blood glucose level at 50 mg/kg, ip once daily for 5 days measured on day 20; type: functional; parameters: scale not given: the % may be the effect or the level left; details: route intraperitoneal
# Mus musculus [9] = assay: Antidiabetic activity in ob/ob mouse type 2 diabetes model assessed as reduction in nonfasting blood glucose level at 50 mg/kg, ip once daily for 5 days; type: functional; parameters: scale not given: the % may be the effect or the level left; details: route intraperitoneal
# Mus musculus [10] = assay: Antidiabetic activity in ob/ob mouse type 2 diabetes model assessed as reduction in fasting blood glucose level at 50 mg/kg, ip once daily for 20 days; type: functional; parameters: scale not given: the % may be the effect or the level left; details: route intraperitoneal
# [11] = AUC (0 to infinity) in po dosed Sprague-Dawley rat; type: ADME, organism-based; parameters: route oral, time infinity; details: plasma
# Mus musculus [12] = assay: Antidiabetic activity in ob/ob mouse type 2 diabetes model assessed as reduction in fasting blood glucose level at 50 mg/kg, ip once daily for 5 days measured on day 15; type: functional; parameters: scale not given: the % may be the effect or the level left; details: route intraperitoneal
# Mus musculus [13] = assay: Antidiabetic activity in ob/ob mouse type 2 diabetes model assessed as reduction in blood glucose level at 50 mg/kg, ip once daily for 5 days measured on day 15; type: functional; parameters: scale not given: the % may be the effect or the level left; details: route intraperitoneal
# [14] = Tmax in po dosed Sprague-Dawley rat; type: ADME, organism-based; details: in vivo
# Mus musculus [15] = assay: Antidiabetic activity in ob/ob mouse type 2 diabetes model assessed as reduction in blood glucose level at 50 mg/kg, ip once daily for 5 days measured on day 10; type: functional; parameters: scale not given: the % may be the effect or the level left; details: route intraperitoneal
# Mus musculus [16] = assay: Toxicity in ob/ob mouse type 2 diabetes model assessed as effect on food intake at 50 mg/kg, ip once daily for 20 days measured every 4 days for 20 days; type: organism-based; parameters: dose 50 mg/kg, route intraperitoneal; details: in vivo, 480 h
# Mus musculus [17] = assay: Toxicity in ob/ob mouse type 2 diabetes model assessed as effect on body weight at 50 mg/kg, ip once daily for 20 days measured every 5 days for 20 days; type: organism-based; parameters: dose 50 mg/kg, route intraperitoneal; details: in vivo, 480 h
# Mus musculus [18] = assay: Antidiabetic activity in ob/ob mouse type 2 diabetes model assessed as reduction in fasting blood glucose level at 50 mg/kg, ip once daily for 5 days measured on day 20; type: functional; parameters: scale not given: the % may be the effect or the level left; details: route intraperitoneal
# [19] = AUC in Sprague-Dawley rat at 5 mg/kg, po; type: ADME, organism-based; parameters: dose 5 mg/kg, route oral; details: plasma
# [20] = Mean residence time in po dosed Sprague-Dawley rat; type: ADME, organism-based; details: in vivo
# [21] = AUC (0 to t) in po dosed Sprague-Dawley rat; type: ADME, organism-based; details: plasma
# [22] = Half life in po dosed Sprague-Dawley rat; type: ADME, organism-based; details: in vivo
# Mus musculus [23] = assay: Antidiabetic activity in ob/ob mouse type 2 diabetes model assessed as reduction in fasting blood glucose level at 50 mg/kg, ip once daily for 5 days measured on day 10; type: functional; parameters: scale not given: the % may be the effect or the level left; details: route intraperitoneal
# Mus musculus [24] = assay: Antidiabetic activity in ob/ob mouse type 2 diabetes model assessed as reduction in nonfasting blood glucose level at 50 mg/kg, ip once daily for 20 days; type: functional; parameters: scale not given: the % may be the effect or the level left; details: route intraperitoneal
# 11-beta-hydroxysteroid dehydrogenase 1 (Mus musculus, UniProt P50172), sequence (P50172 whole entry): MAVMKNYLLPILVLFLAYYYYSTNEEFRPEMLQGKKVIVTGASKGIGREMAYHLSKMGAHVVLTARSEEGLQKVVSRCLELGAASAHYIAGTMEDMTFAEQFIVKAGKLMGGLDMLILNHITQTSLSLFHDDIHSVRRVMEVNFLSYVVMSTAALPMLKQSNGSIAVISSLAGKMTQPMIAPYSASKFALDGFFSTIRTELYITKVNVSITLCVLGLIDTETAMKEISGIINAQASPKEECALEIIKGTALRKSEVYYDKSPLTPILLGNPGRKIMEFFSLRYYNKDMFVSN
compound,measurement,setting,value
CN(C(=O)c1ccc(CN2C(=O)Nc3ccc(Cl)cc3S2(=O)=O)cc1)C12CC3CC(CC(C3)C1)C2,EC50,[1],55 nM
same,EC50,[2],70 nM
O=C(NC1CCCCCC1)N1CCC(CN2C(=O)Nc3ccc(Cl)cc3S2(=O)=O)CC1,EC50,[1],17 nM
same,EC50,[2],283 nM
same,Ratio IC50,HEK293 [3],3
O=C(NC1CCCCCCC1)c1ccc(CN2C(=O)Nc3ccc(Cl)cc3S2(=O)=O)cc1,EC50,[1],180 nM
same,EC50,[2],443 nM
O=C(NC1CCCCCC1)c1ccc(CN2C(=O)Nc3ccc(Cl)cc3S2(=O)=O)cc1,EC50,[1],145 nM
same,EC50,[2],802 nM
O=C(N1CCC(CN2C(=O)Nc3ccc(Cl)cc3S2(=O)=O)CC1)N(C1CCCCC1)C1CC1,EC50,[4],2200 nM
same,EC50,[1],37 nM
same,EC50,[2],121 nM
same,Ratio IC50,HEK293 [3],3
same,EC50,[5],> 100000 nM
CN(C(=O)c1cccc(CN2C(=O)Nc3ccc(Cl)cc3S2(=O)=O)c1)C1CCCCCC1,EC50,[1],401 nM
same,EC50,[2],4 nM
O=C(NC1CCCCC1)c1ccc(CN2C(=O)Nc3ccc(Cl)cc3S2(=O)=O)cc1,EC50,[1],529 nM
same,EC50,[2],686 nM
O=C(c1ccc(CN2C(=O)Nc3ccc(Cl)cc3S2(=O)=O)cc1)N(C1CCCCCC1)C1CC1,EC50,[1],84 nM
same,EC50,[2],55 nM
O=C(N1CCC(CN2C(=O)Nc3ccc(Cl)cc3S2(=O)=O)CC1)N(C1CCCCCC1)C1CC1,EC50,[1],10 nM
same,EC50,[2],517 nM
same,Ratio IC50,HEK293 [3],3
O=C(c1ccc(CN2C(=O)Nc3ccc(Cl)cc3S2(=O)=O)cc1)N(C1CCCCC1)C1CC1,EC50,[1],185 nM
same,EC50,[2],60 nM
CN(C(=O)c1ccc(CN2C(=O)Nc3ccc(Cl)cc3S2(=O)=O)cc1)C1CCCCCC1,EC50,[1],210 nM
same,EC50,[2],90 nM
O=C(c1cccc(CN2C(=O)Nc3ccc(Cl)cc3S2(=O)=O)c1)N(C1CCCCC1)C1CC1,EC50,[1],58 nM
same,EC50,[2],3 nM
O=C(NC12CC3CC(CC(C3)C1)C2)c1ccc(CN2C(=O)Nc3ccc(Cl)cc3S2(=O)=O)cc1,EC50,[1],14 nM
same,EC50,[2],47 nM
CN(C(=O)c1cccc(CN2C(=O)Nc3ccc(Cl)cc3S2(=O)=O)c1)C1C2CC3CC(C2)CC1C3 (configuration not stated),EC50,[1],69 nM
same,EC50,[2],4 nM
CN(C(=O)N1CCC(CN2C(=O)Nc3ccc(Cl)cc3S2(=O)=O)CC1)C1C2CC3CC(C2)CC1C3 (configuration not stated),EC50,[4],720 nM
same,EC50,[1],2 nM
same,EC50,[2],158 nM
same,Ratio IC50,HEK293 [3],3
same,EC50,[5],> 100000 nM
CN(C(=O)N1CCC(CN2C(=O)Nc3ccc(Cl)cc3S2(=O)=O)CC1)C1CCCCCC1,Ratio IC50,HEK293 [6],40
same,Cmax,[7],46.8 ng/mL
same,EC50,[4],860 nM
same,EC50,[1],0.41 nM
same,EC50,[2],21 nM
same,Activity,Mus musculus [8],35.6%
same,Ratio IC50,HEK293 [3],3
same,Activity,Mus musculus [9],25%
same,Activity,Mus musculus [10],31.4%
same,AUC(0-inf),[11],209 ng·h/mL
same,Activity,Mus musculus [12],39.4%
same,Activity,Mus musculus [13],34.6%
same,Tmax,[14],2 h
same,Activity,Mus musculus [15],27.9%
same,EC50,[5],> 100000 nM
same,Activity,Mus musculus [16],Non-toxic
same,Activity,Mus musculus [17],Non-toxic
same,Activity,Mus musculus [18],36.1%
same,AUC,[19],147 ng·h/mL
same,MRT,[20],4.24 h
same,AUC(0-t),[21],173 ng·h/mL
same,half-life,[22],2.3 h
same,Activity,Mus musculus [23],33.3%
same,Activity,Mus musculus [24],25.7%
O=C(c1cccc(CN2C(=O)Nc3ccc(Cl)cc3S2(=O)=O)c1)N(C1CCCCCC1)C1CC1,Cmax,[7],3.86 ng/mL
same,EC50,[1],258 nM
same,EC50,[2],1 nM
same,AUC(0-inf),[11],16.1 ng·h/mL
same,Tmax,[14],2.3 h
same,MRT,[20],4.02 h
same,AUC(0-t),[21],15.5 ng·h/mL
same,half-life,[22],2.02 h
CC1(C)[C@@H](O[C@H]2O[C@H](C(=O)O)[C@@H](O)[C@H](O)[C@H]2O[C@@H]2O[C@H](C(=O)O)[C@@H](O)[C@H](O)[C@H]2O)CC[C@]2(C)[C@H]3C(=O)C=C4[C@@H]5C[C@@](C)(C(=O)O)CC[C@]5(C)CC[C@@]4(C)[C@]3(C)CC[C@@H]12 [GLYCYRRHIZIN],EC50,[1],8 nM
same,EC50,[2],10 nM
